Earlier results, collected in patent US20130071326A1, “UNIVERSAL CELL-DIRECTED THERANOSTICS” (Board of Regents of the University of Texas System, priority 2010, published 2013).

Test system: tumor
Conditions: conventional DOX treatments, at best

SMILES: COc1cccc2c1C(=O)c1c(O)c3c(c(O)c1C2=O)C[C@@](O)(C(=O)CO)C[C@@H]3O[C@H]1C[C@H](N)[C@H](O)[C@H](C)O1 [DOX, doxorubicin]
- accumulation of the drug at the tumor: 0.8 to 5 µg
